Data set [1] deals with K3a,eRh2 coiled coil. Description: Thermal denaturation of metallopeptide coiled coils monitored by CD. The conditions noted are these: for melting temperature (Tm) of coiled coil: equimolar mixture of E3X peptide and K3a,eRh2 in aq buffer, CD 222 nm. The format is physicochemical. As to the method: FIG. 4 is a table detailing the thermal denaturation of metallopeptide coiled coils. The following standard conditions: equimolar mixtures of E3X and K3a,eRh2 in aq buffer (pH 5.9-6.2) were monitored by CD (222 nm) from −5 to 95° C. at 1° C./min. The peptide concentrations are 100 μM. The CD monitored is at 225 nm and in certain embodiments, the peptide concentration is 33 μM.
Rhodium(II) centers are capable of forming stabilizing secondary contacts at the periphery of a protein binding interface while examining the coiled-coil assembly of rhodium(II) metallopeptides with histidine-containing peptides. A rhodium(II) center linked to a coil at positions a and e of a heptad repeat abcdefg (See FIG. 4) would be proximal to position g of the complementary peptide, E3gX.
Circular Dichroism Spectroscopy: Thermal denaturation experiments (−5-105° C. with a gradient of 1° C./min) were performed on a Jasco-J810 spectropolarimeter with a Peltier temperature controller (Jasco PTC423S). Solutions of 1:1 E3-peptide and K3-metallopeptide (both components 100 or 33 μM) in aqueous buffer in a 0.1 cm sealed cell were analyzed, and ellipticity data were acquired at 222 nm (red data points, S-5). When imidazole additive was utilized, ellipticity data were acquired at 225 nm. Temperature denaturation curves were fit to a two-state unfolding model and plotted (black line, S-5) as fraction unfolded vs. temperature as described previously by Lavigne et al.8 Error associated with the non-linear least squared-determined Tm was determined using the freely available “Solver Statistics” macro for Microsoft Excel.

Data set [2] concerns the target T1, CAL PDZ domain (Homo sapiens, UniProt Q9HD26).
T1 construct: Expression and purification of the WT and mutant CAL PDZ domains were performed according to commonly described and known methods; made in house
Description: HSQC footprinting of 15N-CALP. The format is binding. The conditions noted are these: 125-μM peptide, 2.5% (v/v) DMSO. How it is done: HSQC spectra of 15N-CALP determined separately (red) and in the presence of 125-μM E^RhVQSTRL (SEQ ID NO:7) metallopeptide (green) in 2.5% (v/v) DMSO.
The chemical shifts (δ) are reported in units of part per million (ppm) relative to solvent peak. HSQC footprinting: 25 μM N-labeled CAL PDZ protein was also subjected to H, N heteronuclear single quantum correlation spectroscopy (HSQC) analysis, as described, except that tris(2-carboxyethyl)phosphine was omitted from the final dialysis buffers. […] HSQC backbone crosspeaks were assigned by comparison with the previously assigned CALP apo spectrum.

Data set [3] addresses N1P1. Briefly: N1P1 affinity (uM). As to the method: Table printed on a drawing sheet, Figure 9B
Title: Metallopeptide ligands for PDZ domains
Head of the field: N1P1 affinity (uM)
The patent's description of the figure: FIG. 9A is a table of metallopeptide inhibitors of CALP. [a], inhibitor equilibrium dissociation (Ki) constants were determined for cognate peptide/metallopeptide pairs. […] In embodiment, [c]
First copying reader's note: The fold values (22x, 95x and so on) are printed beside brackets joining each peptide/Rh-peptide pair and are repeated in both rows; the H301A block stands apart at the right, has no printed unit, and its rows are matched to the sequences by their height on the sheet.
Where the first naming reader finds the target: head: N1P1 affinity (uM)

Data set [4] concerns the target T2, full-length CAL (Homo sapiens, UniProt Q9HD26).
T2 construct: Western blot of native CAL was captured from epithelial lysates; endogenous in cells; host or cells: CFBE41o- epithelial cell lysate
Briefly: Capture (pulldown) inhibition assay in epithelial cell lysate. In kind it is binding. The following applies: CFBE4lo− cell lysates, BT-iCAL36 bait, n=3. As to the method: Thus, the metalation improves inhibitor potency.
Capture inhibition assays: To determine the ability of inhibitor peptides to displace the interactions of full-length CAL in the presence of the epithelial-cell proteome, a capture inhibition assay was developed. Briefly, using published methods a biotin-conjugated peptide “bait” sequence (BT-iCAL36) was immobilized on streptavidin beads and incubated with clarified lysates of CFBE4lo− cells to capture full-length CAL in the presence of cellular proteins. […] Beads were washed and eluted, and bound proteins were separated by SDS-PAGE and immunoblotted using an α-CAL antibody. Band intensities were separately quantified and averaged (n=3).

For data set [5], the target named is T3, CAL PDZ domain (CALP) (Homo sapiens, UniProt Q9HD26).
T3 construct: Expression and purification of the WT and mutant CAL PDZ domains were performed according to commonly described and known methods; made in house
Briefly: Fluorescence anisotropy inhibition binding assay (displacement of fluorescein-labeled iCAL36 reporter). The conditions noted are these: wild-type CALP. (In general: Polarisation of emitted light reports the rotation of a fluorescent probe.)
Description: Protein binding studies: Fluorescence anisotropy inhibition binding assays were performed using standard procedures. […] Following equilibration, fluorescence anisotropy values were determined using a Tecan Infinite M1000 plate reader (n=3). Inhibitor equilibrium dissociation (Ki) constants were estimated as described. DMSO and rhodium(II) acetate were used as negative controls for unlabeled and labeled peptides, respectively.

For data set [6], the target named is T4, CALP (Homo sapiens, UniProt Q9HD26).
T4 construct: Western blot of native CAL was captured from epithelial lysates; endogenous in cells; host or cells: CFBE41o- epithelial cell lysate
Briefly: CALP affinity (uM).
Description: Head of the field: CALP affinity (uM)

Data set [7] has as its target T4, CALP. Briefly: Ki (μM).
Description: Head of the field: Ki (μM)

One may read the Ki as a dissociation constant, usually derived from enzyme kinetics or from competition with a known ligand.

“Also recorded” adds a separate entry of the source. Where no end group is shown, it is not given here.

Take `N[C@@H](CS)C(=O)O` [E3gC]: in data set [1] (assembly with K3a,eRh2), the “coiled coil stability” value is recorded as “decreased stability”.
Turning to `CC(=O)N[C@@H](CCC(=O)O)C(=O)N[C@H](C(=O)N[C@@H](CCC(N)=O)C(=O)N[C@@H](CO)C(=O)N[C@H](C(=O)N[C@@H](CCCNC(=N)N)C(=O)N[C@@H](CC(C)C)C(=O)O)[C@@H](C)O)C(C)C` [EVQSTRL], the “mode of inhibition” value in data set [2] was “competitive inhibitors”.
`CC[C@H](C)[C@H](NC(=O)[C@@H](NC(=O)[C@H](CO)NC(=O)[C@@H](NC(=O)[C@@H]1CCCN1C(=O)[C@H](Cc1c[nH]c2ccccc12)NC(=O)[C@H](CCC(=O)O)NC(C)=O)[C@@H](C)O)[C@@H](C)CC)C(=O)O` [EWPTSII]: in data set [3], the Ki is greater than 500 µM.
Turning to `CC(=O)N[C@@H](CCC(=O)O)C(=O)N[C@H](C(=O)N[C@@H](CCC(N)=O)C(=O)N[C@@H](CO)C(=O)N[C@H](C(=O)N[C@@H](CCCNC(=N)N)C(=O)N[C@@H](CC(C)C)C(=O)O)[C@@H](C)O)C(C)C` [E^RhVQSTRL], the “inhibition of CAL pulldown” value in data set [4] was “improved inhibition; also recorded: dose-dependent inhibition”. For the same molecule, the “mode of inhibition” value in data set [2] is recorded as “competitive inhibitors”.
Regarding `CC[C@H](C)[C@H](NC(=O)[C@@H](NC(=O)[C@H](CO)NC(=O)[C@@H](NC(=O)[C@@H]1CCCN1C(=O)[C@H](Cc1c[nH]c2ccccc12)NC(=O)[C@H](CCC(=O)O)NC(C)=O)[C@@H](C)O)[C@@H](C)CC)C(=O)O` [E^RhWPTSII], in data set [3], the Ki is greater than 50 µM.
Take `CC(=O)[O-].CC(=O)[O-].CC(=O)[O-].CC(=O)[O-].[Rh+2].[Rh+2]` [Rh2(OAc)4, rhodium(II) acetate]: the Ki in data set [5] (n=3, read-out: Ki (inhibitor equilibrium dissociation constant)) was 13 ± 5 µM.
Regarding `CC(=O)N[C@H](C(=O)N[C@@H](CCC(N)=O)C(=O)N[C@@H](CC(=O)O)C(=O)N[C@H](C(=O)N[C@@H](CCCNC(=N)N)C(=O)N[C@@H](CC(C)C)C(=O)O)[C@@H](C)O)C(C)C` [VQDTRL], in data set [5], the “CALP affinity” value was “weak CALP affinity”. In data set [3], this molecule came in with an inhibitory constant (Ki) of 0.7 µM.
Regarding Ac-EVQSTRF-OH [EVQSTRF], in data set [6], the Ki is greater than 1000 µM.
With Ac-EVQSTRF-OH [E^RhVQSTRF], the Ki in data set [6] was greater than 15 µM.
In the case of Ac-QLDVTR-OH [QLDVTR], in data set [7], the Ki is greater than 500 µM.
In the case of “E3cH: E3 coil peptide with histidine moved to position c (Ac-EISALEKEISHLEQEISALEK)”, in data set [1], the “melting temperature (Tm) of coiled coil” value amounted to 47.0 °C.
As for “E3gE: E3 coil peptide with glutamate at position g (Ac-EISALEKEISALEQEISALEK)”, in data set [1], the “melting temperature (Tm) of coiled coil” value stood at 50.2 °C.
Same read-out and setting: the same measure for “E3gF: E3 coil control peptide with non-coordinating phenylalanine at position g (Ac-EISALEKFISALEQEISALEK) [reference compound]”: 39.5 °C; for “E3gM: E3 coil peptide with methionine at position g (Ac-EISALEKMISALEQEISALEK)”: greater than 70 °C.
With “QLD^RhVTR: metallopeptide derived from a non-binding, scrambled control sequence (Ac-QLDVTR; also: rhodium(II) metalated, site not placed)”, in data set [5], the “CALP affinity” value is reported as “comparable”.
